Each compound was assayed on KPL-4 Cells (assay: Cell proliferation inhibition test (CellTiter-Glo, 72h)). Conditions: 72h incubation, Table 2 run.
Type: cell-based
Method: KPL-4 Cells in the logarithmic phase of growth were collected and re-suspended with fresh RPMI1640 complete cell culture medium, and adjusted to 2×10^4 cells/mL after cell counting. Cells were seeded into 96-well cell culture plates at 100 µL/well, and placed in a CO2 incubator (37° C., 5% CO2) overnight. In the next day, one of the cell culture plates were taken out, balanced to room temperature, and CellTiter-Glo reagent (Promega, USA), which was pre-balanced to room temperature and evenly mixed, was added into the plate at 100 μl. The plate was kept in dark for 30 min, and then luminescence value was read with a microplate reader (denoted as Go value). The other cell culture plates were taken out and added with different concentrations of test compounds or DMSO (final concentration 0.5%) in corresponding wells. After incubated for 72h in a CO2 incubator, the cell culture plates were balanced to room temperature and tested for cell viabilities using CellTiter-Glo reagent as described above (denoted as G3 value).
DXd was used as a positive reference compound with the following structure:
The cell proliferation rates were calculated using the following formula: Cell proliferation rate (%)=(mean of G3compound−mean of G0)/(mean of G3DMSO−mean of G0)×100.

Q: For `CC[C@@]1(O)C(=O)OCc2c1cc1n(c2=S)Cc2c-1nc1cc(F)c(C)c3c1c2[C@@H](NC(=O)C1CC(O)C1)CC3` (stereo partly shown) [Example 29], which GI50 is on record?
A: 5.96 nM

Q: For `CC[C@@]1(O)C(=O)OCc2c1cc1n(c2=S)Cc2c-1nc1cc(F)c(C)c3c1c2[C@@H](NC(=O)C1CC(O)C1)CC3` (stereo partly shown) [Example 30], which GI50 is on record?
A: 11.3 nM

Q: `CC[C@@]1(O)C(=O)OCc2c1cc1n(c2=S)Cc2c-1nc1cc(F)c(C)c3c1c2[C@@H](NC(=O)C1CCC(O)CC1)CC3` (stereo partly shown) [Example 32] was tested. Which GI50 did it give?
A: 8.47 nM

Q: For `CC[C@@]1(O)C(=O)OCc2c1cc1n(c2=S)Cc2c-1nc1cc(F)c(C)c3c1c2[C@@H](NC(=O)C1CCC(O)CC1)CC3` (stereo partly shown) [Example 33], which GI50 is on record?
A: 6.34 nM

Same assay, conditions: KPL4, 72 h, 72h incubation, Table 1 run (DXd: average of 2 measurements)

Q: For `CC[C@@]1(O)C(=O)OCc2c1cc1n(c2=O)Cc2c-1nc1cc(F)c(C)c3c1c2[C@@H](NC(=O)CO)CS3` [DXd, reference compound], which GI50 is on record?
A: 45.4 nM

Q: Which GI50 does the source give for `CC[C@@]1(O)C(=O)OCc2c1cc1n(c2=S)Cc2c-1nc1cc(F)c(C)cc1c2CN` [Example 2] here?
A: 2.82 nM

Q: How did the GI50 turn out when `CC[C@@]1(O)C(=O)OCc2c1cc1n(c2=S)Cc2c-1nc1cc(F)c(C)cc1c2CNC(=O)CO` [Example 3] was run?
A: 6.27 nM

Q: `CC[C@@]1(O)C(=O)OCc2c1cc1n(c2=S)Cc2c-1nc1cc(F)c(C)cc1c2CCCCO` [Example 4] was tested. Which GI50 did it give?
A: 2.23 nM

Q: Which GI50 does the source give for `CC[C@@]1(O)C(=O)OCc2c1cc1n(c2=S)Cc2c-1nc1ccc(N)c3c1c2CCC3` [Example 5] here?
A: 1.84 nM

Same assay, conditions: KPL4, 72 h, 72h incubation, Table 2 run

Q: `CC[C@@]1(O)C(=O)OCc2c1cc1n(c2=S)Cc2c-1nc1cc3c(cc1c2CCNC(C)C)OCO3` [Example 10] was tested. Which GI50 did it give?
A: 2.24 nM

Q: With `CC[C@@]1(O)C(=O)OCc2c1cc1n(c2=S)Cc2c-1nc1cc(F)c(C)c3c1c2[C@@H](NC(=O)C[C@H](C)O)CC3` [Example 27] as the compound, how does the GI50 read?
A: 2.93 nM

Q: Which GI50 does the source give for `CC[C@@]1(O)C(=O)OCc2c1cc1n(c2=S)Cc2cc3c(CCCCO)c(C)c(F)cc3nc2-1` [Example 6] here?
A: 3.45 nM

Q: How did the GI50 turn out when `CC[C@@]1(O)C(=O)OCc2c1cc1n(c2=S)Cc2c-1nc1cc(F)c(C)c3c1c2[C@@H](NC(=O)C1CC(O)C1)CC3` (stereo partly shown) [Example 28] was run?
A: 10.8 nM

Q: Which GI50 does the source give for `CC[C@@]1(O)C(=O)OCc2c1cc1n(c2=S)Cc2c-1nc1cc(F)c(C)c3c1c2[C@@H](NC(=O)C1CCC(O)CC1)CC3` (stereo partly shown) [Example 31] here?
A: 8.62 nM

Q: With `CC[C@@]1(O)C(=O)OCc2c1cc1n(c2=S)Cc2c-1nc1cc3c(cc1c2C12CC(N)(C1)C2)OCO3` [Example 12] as the compound, how does the GI50 read?
A: 2.98 nM

Q: Which GI50 does the source give for `CC[C@@]1(O)C(=O)OCc2c1cc1n(c2=O)Cc2c-1nc1cc(F)c(C)c3c1c2[C@@H](NC(=O)CO)CS3` [DXd, reference compound] here?
A: 22.8 nM

Q: For `CC[C@@]1(O)C(=O)OCc2c1cc1n(c2=S)Cc2cc3cc(N)c(F)cc3nc2-1` [Example 13], which GI50 is on record?
A: 0.63 nM

Q: For `CC[C@@]1(O)C(=O)OCc2c1cc1n(c2=S)Cc2c-1nc1cc(F)c(C)cc1c2CNC(=O)C1CCC(O)CC1` (stereo partly shown) [Example 21], which GI50 is on record?
A: 16.8 nM

Q: Which GI50 does the source give for `CC[C@@]1(O)C(=O)OCc2c1cc1n(c2=S)Cc2c-1nc1cc(F)c(C)cc1c2CNC(=O)C(O)C1CC1` (stereo partly shown) [Example 23] here?
A: 1.73 nM

Q: How did the GI50 turn out when `CC[C@@]1(O)C(=O)OCc2c1cc1n(c2=S)Cc2c-1nc1cc(F)c(C)cc1c2CNC(=O)C(C)O` (stereo partly shown) [Example 22] was run?
A: 2.81 nM

Q: With `CC[C@@]1(O)C(=O)OCc2c1cc1n(c2=S)Cc2c-1nc1ccccc1c2CCNC(C)C` [Example 11] as the compound, how does the GI50 read?
A: 6.48 nM

Q: For `CC[C@@]1(O)C(=O)OCc2c1cc1n(c2=S)Cc2c-1nc1cc(F)c(C)c3c1c2[C@@H](NC(=O)C[C@@H](C)O)CC3` [Example 26], which GI50 is on record?
A: 3.24 nM

Q: With `CC[C@@]1(O)C(=O)OCc2c1cc1n(c2=S)Cc2c-1nc1cc3c(cc1c2CNC(=O)C[C@@H](C)O)OCO3` [Example 18] as the compound, how does the GI50 read?
A: 4.35 nM

Q: How did the GI50 turn out when `CC[C@@]1(O)C(=O)OCc2c1cc1n(c2=S)Cc2c-1nc1cc(F)c(C)cc1c2CNC(=O)C[C@@H](C)O` [Example 25] was run?
A: 2.21 nM

Q: For `CC[C@@]1(O)C(=O)OCc2c1cc1n(c2=S)Cc2c-1nc1cc3c(cc1c2CNC(=O)CN)OCO3` [Example 9], which GI50 is on record?
A: 12.2 nM

Q: With `CC[C@@]1(O)C(=O)OCc2c1cc1n(c2=S)Cc2c-1nc1cc3c(cc1c2CNC(=O)C[C@H](C)O)OCO3` [Example 19] as the compound, how does the GI50 read?
A: 4.27 nM

Q: For `CC[C@@]1(O)C(=O)OCc2c1cc1n(c2=S)Cc2c-1nc1cc3c(cc1c2CNC(=O)CO)OCO3` [Example 8], which GI50 is on record?
A: 12 nM

Q: Which GI50 does the source give for `CC[C@@]1(O)C(=O)OCc2c1cc1n(c2=S)Cc2c-1nc1cc3c(cc1c2CNC(=O)C1CC(O)C1)OCO3` (stereo partly shown) [Example 16] here?
A: 14.5 nM

Q: Which GI50 does the source give for `CC[C@@]1(O)C(=O)OCc2c1cc1n(c2=S)Cc2c-1nc1cc3c(cc1c2CNC(=O)C(C)O)OCO3` (stereo partly shown) [Example 15] here?
A: 4.13 nM

Q: For `CC[C@@]1(O)C(=O)OCc2c1cc1n(c2=S)Cc2c-1nc1cc3c(cc1c2CNC(=O)C(O)C1CC1)OCO3` (stereo partly shown) [Example 14], which GI50 is on record?
A: 3.49 nM

Q: With `CC[C@@]1(O)C(=O)OCc2c1cc1n(c2=S)Cc2c-1nc1cc(F)c(C)cc1c2CNC(=O)C[C@H](C)O` [Example 24] as the compound, how does the GI50 read?
A: 2.81 nM
